# Results reported in patent US9045445B2, “Glycine transporter-1 inhibitors, methods of making them, and uses thereof” (Albany Molecular Research, Inc., priority 2010, dated 2015).
# Where a name gives a salt, the structure may show the parent alone.
# Target: T1, glycine transporter-1 (GlyT-1) (Homo sapiens, UniProt P48067)
# T1 construct: JAR cells (ATCC#HTB-144), which endogenously express GlyT-1; host or cells: JAR human choriocarcinoma cells
# T1 sequence (P48067 1-706): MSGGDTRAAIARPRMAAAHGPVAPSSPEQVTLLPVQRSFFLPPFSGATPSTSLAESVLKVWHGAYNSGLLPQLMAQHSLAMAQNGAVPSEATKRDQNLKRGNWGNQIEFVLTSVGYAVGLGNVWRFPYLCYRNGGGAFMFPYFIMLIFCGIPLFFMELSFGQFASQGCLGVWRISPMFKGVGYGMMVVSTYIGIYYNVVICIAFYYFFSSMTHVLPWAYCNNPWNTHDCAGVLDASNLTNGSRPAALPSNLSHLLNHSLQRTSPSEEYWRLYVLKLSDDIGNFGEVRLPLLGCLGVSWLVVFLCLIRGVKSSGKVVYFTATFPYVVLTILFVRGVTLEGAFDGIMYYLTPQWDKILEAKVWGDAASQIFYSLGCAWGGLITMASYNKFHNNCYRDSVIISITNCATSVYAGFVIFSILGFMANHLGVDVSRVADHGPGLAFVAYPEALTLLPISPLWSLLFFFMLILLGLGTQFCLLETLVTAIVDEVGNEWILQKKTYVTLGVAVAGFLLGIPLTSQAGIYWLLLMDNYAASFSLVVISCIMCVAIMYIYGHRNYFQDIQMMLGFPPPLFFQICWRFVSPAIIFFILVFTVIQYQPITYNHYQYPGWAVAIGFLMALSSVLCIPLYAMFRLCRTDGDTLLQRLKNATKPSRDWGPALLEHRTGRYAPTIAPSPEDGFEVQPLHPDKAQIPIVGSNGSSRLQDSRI
# Assay: [14C]glycine uptake assay in JAR cells endogenously expressing GlyT-1 (scintillation proximity)
# Type: cell-based
# Conditions: JAR cells, [14C]glycine 5 μM, 3 hour incubation; read-out: GlyT-1 IC50
# Protocol: The inhibitory activity of compounds of the invention against the glycine transporter-1 (GlyT-1) can be determined by the following scintillation proximity assay. The potency of each compound was assessed in inhibiting the uptake of radiolabeled glycine ([^14C]glycine) using the human choriocarcinoma cell line, JAR cells (ATCC#HTB-144), which endogenously express GlyT-1. In brief, 50,000 JARS cells were plated per well of tissue culture treated 96-well Cytostar-T plate (PerkinElmer) in RPMI media supplemented with 10% heat inactivated FBS and allowed to attach overnight at 37° C. and 5% CO2. Compounds were serially diluted 3-fold in DMSO generating a nine (9) data point response curve for each compound. Two replicates were performed per determination. The compounds were then diluted into Uptake Buffer (10 mM Hepes, 120 mM NaCl, 2 mM KCl, 1 mM CaCl2 and 1 mM MgCl2, 5 mM Alanine, pH 7.4) with a final DMSO concentration of 0.75% (v/v). Following the overnight incubation, the media was replaced with Uptake Buffer in the presence or absence of diluted compound and pre-incubated at room temperature for 10 minutes prior to the addition of [^14C]glycine at a final concentration of 5 μM. Following a 3 hour incubation period at 37° C. and 5% CO2, the plates were sealed and placed at room temperature in the dark for 15 minutes prior to quantification of incorporated radioactivity using a MicroBeta Trilux scintillation plate reader (PerkinElmer). Data were fit into a four-parameter model to determine the inhibitor concentration at half-maximal response (IC50). The assay window was established by control wells incubated with [^14C]glycine in the presence or absence of 10 mM non-labeled glycine. A dose response curve for a synthesized reference standard was generated on every plate as a positive control.
row,Structure (SMILES),IC50 [nM]
1,"CCCS(=O)(=O)N1CCN(C2(CNC(=O)c3ccc(F)cc3C(F)(F)F)CCC(F)(F)CC2)CC1 [compound 148, N-((4,4-Difluoro-1-(4-(propylsulfonyl)piperazin-1-yl)cyclohexyl)methyl)-4-fluoro-2-(trifluoromethyl)benzamide Hydrochloride]",30
2,"CCCS(=O)(=O)N1CCN(C2(CNC(=O)c3c(F)cccc3C(F)(F)F)CCC(F)(F)CC2)CC1 [compound 149, N-((4,4-Difluoro-1-(4-(propylsulfonyl)piperazin-1-yl)cyclohexyl)methyl)-2-fluoro-6-(trifluoromethyl)benzamide Hydrochloride]",69
3,"CCCS(=O)(=O)N1CCN(C2(CNC(=O)c3ccc(C(F)(F)F)cc3F)CCC(F)(F)CC2)CC1 [compound 150, N-((4,4-Difluoro-1-(4-(propylsulfonyl)piperazin-1-yl)cyclohexyl)methyl)-2-fluoro-4-(trifluoromethyl)benzamide Hydrochloride]",61
4,"CCCS(=O)(=O)N1CCN(C2(CNC(=O)c3c(Cl)cccc3OC)CCC(F)(F)CC2)CC1 [compound 152, 2-Chloro-N-((4,4-difluoro-1-(4-(propylsulfonyl)piperazin-1-yl)cyclohexyl)methyl)-6-methoxybenzamide Hydrochloride]",34
5,"CCCS(=O)(=O)N1CCN(C2(CNC(=O)c3ccc(Cl)cc3C)CCC(F)(F)CC2)CC1 [compound 153, 4-Chloro-N-((4,4-difluoro-1-(4-(propylsulfonyl)piperazin-1-yl)cyclohexyl)methyl)-2-methylbenzamide Hydrochloride]",69
6,"CCCS(=O)(=O)N1CCN(C2(CNC(=O)c3ccc(F)cc3Cl)CCC(F)(F)CC2)CC1 [compound 154, 2-Chloro-N-((4,4-difluoro-1-(4-(propylsulfonyl)piperazin-1-yl)cyclohexyl)methyl)-4-fluorobenzamide Hydrochloride]",38
7,"CCCS(=O)(=O)N1CCN(C2(CNC(=O)c3c(C)cccc3Cl)CCC(F)(F)CC2)CC1 [compound 155, 2-Chloro-N-((4,4-difluoro-1-(4-(propylsulfonyl)piperazin-1-yl)cyclohexyl)methyl)-6-methylbenzamide Hydrochloride]",26
8,"CCCS(=O)(=O)N1CCN(C2(CNC(=O)c3c(F)cccc3Cl)CCC(F)(F)CC2)CC1 [compound 156, 2-Chloro-N-((4,4-difluoro-1-(4-(propylsulfonyl)piperazin-1-yl)cyclohexyl)methyl)-6-fluorobenzamide Hydrochloride]",43
9,"CCCS(=O)(=O)N1CCN(C2(CNC(=O)c3c(Cl)cccc3C(F)(F)F)CCC(F)(F)CC2)CC1 [compound 157, 2-Chloro-N-((4,4-difluoro-1-(4-(propylsulfonyl)piperazin-1-yl)cyclohexyl)methyl)-6-(trifluoromethyl)benz-amide Hydrochloride]",59
10,"CCCS(=O)(=O)N1CCN(C2(CNC(=O)c3c(F)cccc3OC(F)(F)F)CCC(F)(F)CC2)CC1 [compound 158, N-((4,4-Difluoro-1-(4-(propylsulfonyl)piperazin-1-yl)cyclohexyl)methyl)-2-fluoro-6-(trifluoro-methoxy)benzamide Hydrochloride]",35
11,"CCCS(=O)(=O)N1CCN(C2(CNC(=O)c3c(Cl)cccc3OC(F)(F)F)CCC(F)(F)CC2)CC1 [compound 159, 2-Chloro-N-((4,4-difluoro-1-(4-(propylsulfonyl)piperazin-1-yl)cyclohexyl)methyl)-6-(trifluoromethoxy) benzamide Hydrochloride]",29
12,"Cc1cccc(C)c1C(=O)NCC1(N2CCN(S(=O)(=O)c3cn(C)cn3)CC2)CCC(F)(F)CC1 [compound 164, N-((4,4-Difluoro-1-(4-(1-methyl-1H-imidazol-4-ylsulfonyl)piperazin-1-yl)cyclohexyl)methyl)-2,6-dimethylbenzamide Hydrochloride]",4
